Assay results as given in ChEMBL document CHEMBL4811259, “Novel 1-(prop-2-yn-1-ylamino)-2,3-dihydro-1H-indene-4-thiol derivatives as potent selective human monoamine oxidase B inhibitors: Design, SAR development, and biological evaluation” (Bioorg Med Chem Lett, 2021).
Activity calls are given as the source filed them. The calls are words filed in the database; no cut-off is given here.

Key:
[1] = target: T1, Amine oxidase [flavin-containing] B (Homo sapiens, UniProt P27338); assay: Inhibition of human MAO-B
T1 sequence (P27338 whole entry): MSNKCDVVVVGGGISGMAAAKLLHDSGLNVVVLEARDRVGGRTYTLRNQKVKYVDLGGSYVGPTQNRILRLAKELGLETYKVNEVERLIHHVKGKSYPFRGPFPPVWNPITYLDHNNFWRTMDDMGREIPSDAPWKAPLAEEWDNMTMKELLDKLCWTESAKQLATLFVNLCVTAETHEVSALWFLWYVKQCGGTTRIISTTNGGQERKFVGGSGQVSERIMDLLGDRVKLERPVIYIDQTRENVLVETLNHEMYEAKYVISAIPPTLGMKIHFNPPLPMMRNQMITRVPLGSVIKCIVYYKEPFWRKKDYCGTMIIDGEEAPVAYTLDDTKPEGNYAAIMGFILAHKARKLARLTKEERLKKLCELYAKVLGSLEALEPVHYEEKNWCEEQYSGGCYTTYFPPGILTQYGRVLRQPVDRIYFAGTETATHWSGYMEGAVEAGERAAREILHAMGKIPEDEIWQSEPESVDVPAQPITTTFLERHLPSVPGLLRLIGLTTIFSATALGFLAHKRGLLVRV

[2] = Selectivity index, ratio of IC50 for human MAO-A to IC50 for human MAO-B
SH-SY5Y [3] = assay: Cytotoxicity against human SH-SY5Y cells at 5 to 50 uM after 24 hrs by MTT assay; type: cell-based; conditions: dose 5-50 µM
BV-2 [4] = assay: Cytotoxicity against C57/BL6 mouse BV-2 cells at 5 to 50 uM after 24 hrs by MTT assay; type: cell-based; conditions: bv-2, 24 h, dose 5-50 µM
BV-2 [5] = assay: Cytotoxicity against C57/BL6 mouse BV-2 cells assessed as induction of cell death at 50 uM after 24 hrs by MTT assay relative to control; type: cell-based; conditions: bv-2, 24 h
SH-SY5Y [6] = assay: Cytotoxicity against human SH-SY5Y cells assessed as induction of cell death at 50 uM after 24 hrs by MTT assay relative to control; type: cell-based
BV-2 [7] = assay: Neuroprotective activity against LPS-induced oxidative stress in C57/BL6 mouse BV-2 cells assessed as decrease in ROS level at < 20 uM after 24 hrs by DCFH-DA dye based fluorescence assay; type: functional, cell-based; conditions: dose microM <20, time 24.0 hrs
SH-SY5Y [8] = assay: Neuroprotective activity against LPS-induced oxidative stress in human SH-SY5Y cells assessed as decrease in ROS level at < 20 uM after 24 hrs by DCFH-DA dye based fluorescence assay; type: functional, cell-based; conditions: dose microM <20, time 24.0 hrs
Mus musculus [9] = assay: Neuroprotective activity against MPTP-induced C57BL/6J mouse model of Parkinson's disease assessed as increase in average speed at 0.2 mg/kg, ip pretreated for 7 consecutive days followed by MPTP challenge and further treated with compound until day 14 by open field test; type: functional, organism-based; conditions: time 14.0 day
Mus musculus [10] = assay: Neuroprotective activity against MPTP-induced C57BL/6J mouse model of Parkinson's disease assessed as increase in total distance at 0.2 mg/kg, ip pretreated for 7 consecutive days followed by MPTP challenge and further treated with compound until day 14 by open field test; type: functional, organism-based; conditions: time 14.0 day
Mus musculus [11] = assay: Neuroprotective activity against MPTP-induced C57BL/6J mouse model of Parkinson's disease assessed as decrease in immobility time at 0.2 mg/kg, ip pretreated for 7 consecutive days followed by MPTP challenge and further treated with compound until day 14 by open field test; type: functional, organism-based; conditions: time 14.0 day
[12] = target: T1, Amine oxidase [flavin-containing] B; assay: Inhibition of human MAO-A; type: ADME

Compound | IC50 [1] | Ratio IC50 [2] | other results
C#CCNC1CCc2c(SCCc3ccc(OC)cc3)cccc21 (stereo unspecified) | 62 µM | 13.5 | 
C#CCNC1CCc2c(SCCc3cccc(Cl)c3)cccc21 (stereo unspecified) | 82.4 µM |  | 
C#CCNC1CCc2c(SCc3ccc(Cl)cc3Cl)cccc21 (stereo unspecified) | 3.76 µM | 5.93 | 
C#CCNC1CCc2c(SCc3ccc(Br)cc3)cccc21 (stereo unspecified) | 1.31 µM | 0.37 | 
C#CCNC1CCc2c(SCCc3ccc(C(F)(F)F)cc3)cccc21 (stereo unspecified) | 16.1 µM | 0.54 | 
C#CCNC1CCc2c(SCc3ccc(Cl)c(Cl)c3)cccc21 (stereo unspecified) | 2.84 µM | 0.026 | 
C#CCNC1CCc2c(SCCc3cccc(F)c3)cccc21 (stereo unspecified) | 4.3 µM | 1.82 | 
C#CCNC1CCc2c(SCc3cccc(Cl)c3)cccc21 (stereo unspecified) | 23.3 µM | 0.047 | 
C#CCNC1CCc2c(SCCc3cccc(C(F)(F)F)c3)cccc21 (stereo unspecified) | 3.72 µM | 0.076 | 
C#CCNC1CCc2c(SCc3ccc(F)c(F)c3)cccc21 (stereo unspecified) | 2.65 µM | 0.99 | 
C#CCNC1CCc2c(SCCc3ccc(Cl)cc3)cccc21 (stereo unspecified) | 10.8 µM | 0.085 | 
C#CCNC1CCc2c(SCc3cccc(F)c3)cccc21 (stereo unspecified) | 1.48 µM | 7.79 | 
C#CCNC1CCc2c(SCc3cccc(C)c3)cccc21 (stereo unspecified) | > 100 µM |  | 
C#CCNC1CCc2c(SCc3cccc(Br)c3)cccc21 (stereo unspecified) | > 100 µM |  | 
C#CCNC1CCc2c(SCCc3ccc(Cl)c(Cl)c3)cccc21 (stereo unspecified) | 3.85 µM | 0.73 | 
C#CCNC1CCc2c(SCCc3ccc(Br)cc3)cccc21 (stereo unspecified) | 85.3 µM | 0.015 | 

Compound | IC50 [1] | Ratio IC50 [2] | other results
C#CCNC1CCc2c(NCc3cccc(C(F)(F)F)c3)cccc21 (stereo unspecified) | 5.11 µM | 2.21 | 
C#CCNC1CCc2c(SCCc3ccc(C)cc3)cccc21 (stereo unspecified) | 25.8 µM | 0.18 | 
C#CCNC1CCc2c(SCc3ccc(C)cc3)cccc21 (stereo unspecified) | 1.56 µM | 0.2 | 
C#CCNC1CCc2c(SCCc3ccc(F)c(F)c3)cccc21 (stereo unspecified) | 3.24 µM |  | 
C#CCNC1CCc2c(SCc3ccc(OC)cc3)cccc21 (stereo unspecified) | 1.9 µM | 2.09 | 
C#CCNC1CCc2c(SCCc3cccc(OC)c3)cccc21 (stereo unspecified) | 28.7 µM | 0.13 | 
C#CCNC1CCc2c(SCCc3cccc(Br)c3)cccc21 (stereo unspecified) | 30.5 µM | 0.02 | 
C#CCN[C@@H]1CCc2ccccc21 [RASAGILINE] |  |  | Activity (SH-SY5Y [3]): Non-Toxic; Activity (BV-2 [4]): Non-Toxic; Activity (BV-2 [5]): 30%; Activity (SH-SY5Y [6]): 30%; Activity (BV-2 [7]): Active; Activity (SH-SY5Y [8]): Active; Activity (Mus musculus [9]): Active; Activity (Mus musculus [10]): Active; Activity (Mus musculus [11]): Active
C#CCNC1CCc2c(OCc3cccc(C(F)(F)F)c3)cccc21 (stereo unspecified) | 6.41 µM | 0.84 | 
C#CCNC1CCc2c(SCc3ccccc3)cccc21 (stereo unspecified) | 6.4 µM | > 15.6 | IC50 [12]: Not Active
C#CCNC1CCc2c(SCc3cccc(C(F)(F)F)c3)cccc21 (stereo unspecified) | 0.0047 µM | 1640 | Activity (SH-SY5Y [3]): Non-Toxic; Activity (BV-2 [4]): Non-Toxic; Activity (BV-2 [5]): 30%; Activity (SH-SY5Y [6]): 30%; Activity (BV-2 [7]): Active; Activity (SH-SY5Y [8]): Active; Activity (Mus musculus [9]): Active; Activity (Mus musculus [10]): Active; Activity (Mus musculus [11]): Active
C#CCNC1CCc2c(SCCc3cccc(C)c3)cccc21 (stereo unspecified) | 0.00035 µM | 14200 | Activity (SH-SY5Y [3]): Non-Toxic; Activity (BV-2 [4]): Non-Toxic; Activity (BV-2 [5]): 30%; Activity (SH-SY5Y [6]): 30%; Activity (BV-2 [7]): Active; Activity (SH-SY5Y [8]): Active; Activity (Mus musculus [9]): Active; Activity (Mus musculus [10]): Active; Activity (Mus musculus [11]): Active
C#CCNC1CCc2c(SCc3ccc4ccccc4c3)cccc21 (stereo unspecified) | 4.95 µM | 14 | 
C#CCNC1CCc2c(SCc3ccc(F)cc3F)cccc21 (stereo unspecified) | 2.43 µM | 0.61 | 
C#CCNC1CCc2c(SCc3ccc(C(F)(F)F)cc3)cccc21 (stereo unspecified) | 9.68 µM | 0.096 | 
C#CCNC1CCc2c(SCc3cccc(OC)c3)cccc21 (stereo unspecified) | 3.19 µM | 0.48 | 
